Measurements from patent publication US20050148521A1, “Anti-cancer combination and use thereof” (Yissum Research Development Company of the Hebrew University, priority 2002, published 2005).
“Also recorded” adds a separate entry of the source.

Tests used:
tumor-bearing mice = test: Own studies with tumor-bearing mice, agent given by itself; assay type: in vivo
[1] = test system: EMT6/CTX mouse breast cancer cell line; test: EMT6/CTX subcutaneous tumor growth in mice (tumor volume); assay type: in vivo
Description: Breast cancer is a highly lethal disease. To test the efficacy of rofecoxib, benzyl benzoate, cyclophosphamide, and pamidronate alone and in combination, a mouse breast cancer cell line, EMT6, that was originally isolated from a spontaneous tumor in a BALB/c mouse was used (Twentyman P R and Watson J V, Br. J. Cancer 35: 120 (1977)). This line was further selected for a drug resistant variant, EMT6/CTX, that was used in this study (Teicher B A et al. Cancer Chemother. Pharmacol. 37: 601 (1996)). An EMT6/CTX cell suspension was freshly prepared in DMEM medium+10% FCS, following trypsinization of cell grown in tissue culture. Anesthesia is performed by injecting 0.08 ml per mouse of Ketamine 30 mg/ml+0.07% Chanazine in PBS.
Rofecoxib (Vioxx, a Merck & Co. Inc. product), as an oral suspension. Diclofenac, water-soluble Vitamin K3 (menadione sodium bisulfite) and Benzyl benzoate, purchased from Sigma-Aldrich (St. Louise, […].), were formulated into solution in double-distilled water plus 2% Tween 20 (J.T. Baker, NJ). Cyclophosphamide, purchased from Bristol-Meyers Squibb (Princeton, N.J.), was formulated into solution in double-distilled water plus 2% Tween 20. Pamidronate (Pamidronic acid) was dissolved in 2M HEPES. The following doses were used for treatment in all three experiments: Rofecoxib 10 mg/kg, pamidronate 10 mg/kg, Diclofenac 30 or 60 mg/kg, menadione sodium bisulfite 20 or 50 mg/kg, cyclophosphamide (CTX) 50, 60 or 100 mg/kg and benzyl benzoate 80 or 550 mg/kg. Vehicle: 2% Tween 20 in double distilled water. The preparations were made in a concentration that will require an i.p. injection of 0.1 ml per 20 gr body weight to achieve the above doses.
All treatments were started 5 days after cell inoculation. Treatment comprised an intraperitoneal injection of 0.1 ml per 20 gr body weight of the formulation. Mice were treated twice a week for a period of 3 weeks.
Tumor dimensions were measured twice a week. Tumor volume was calculated according to conventional methods (volume=a^2×b×0.52 where a represents the tumor width and b is its length) and the data are represented as changes in tumor volume with time. Toxicity was evaluated by qualitative observation of the general appearance and behavior of the mice, by measuring their body weight during various intervals during the course of the treatments and by obtaining mortality data.

cancer = conditions: Tetef M. et al. J. Cancer Res. Clin. Oncol. 121: 103-6 (1995); cited from earlier work

CS(=O)(=O)c1ccc(C2=C(c3ccccc3)C(=O)OC2)cc1 [Rofecoxib]
anti-cancer effect (tumor-bearing mice): no significant anti-cancer effect

O=C(O)Cc1ccccc1Nc1c(Cl)cccc1Cl [D, Diclofenac]
tumor volume, comparison of NSAID ([1]; Experiment 6, FIG. 6, NSAID Wed. with or without B, CTX 100 Sun., A all week, 4 weeks): superiority of D (25 and 50 mg/kg) over C (5 and 10 mg/kg, respectively)

CC1=CC(=O)c2ccccc2C1=O [VK, 2-methyl-1,4-naphthalenedione]
tumor volume, effect of addition of Vitamin K3 ([1]; Experiment 8, FIG. 8, VK 20 mg/kg 6 times a week or 50 mg/kg twice a week added to CTX60+D30+A, 4 weeks): improve the efficacy of the treatment; also recorded: lower doses throughout the week (every day) is preferable
activity as an anti-cancer agent (cancer): failed to show any activity

O=C(OCc1ccccc1)c1ccccc1 [A, Benzyl benzoate]
tumor volume, comparison of regimen ([1]; Experiment 4, FIG. 4, (CTX 50+BC)x2 per week+1/6A x6 per week vs CTX 50+ABC twice a week, 4 weeks): superiority of spreading the dose of A throughout the week

O=P1(N(CCCl)CCCl)NCCCO1 (stereo not shown) [CTX 50, Cyclophosphamide]
effect on tumor growth ([1]; Experiment 3, FIG. 3, i.p. twice a week for 4 weeks, start 3 days after inoculation): moderate effect on tumor growth
tumor volume, comparison of regimen ([1]; Experiment 7, FIG. 7, CTX 100 Sun. or CTX20 all week, D50 1, 3 or 5 days apart, A all week, 4 weeks): preferred over equal small doses throughout the week
